Measured values published in ChEMBL document CHEMBL5291721, “A preclinical secondary pharmacology resource illuminates target-adverse drug reaction associations of marketed drugs” (Nat Commun, 2023).

What was measured:
[1] = target: Voltage-dependent L-type calcium channel subunit alpha-1C (Rattus norvegicus, UniProt P22002); format: functional
[2] = target: Histamine H3 receptor (Homo sapiens, UniProt Q9Y5N1)
[3] = target: T1, Gastrin/cholecystokinin type B receptor (Homo sapiens, UniProt P32239)
T1 sequence (P32239 whole entry): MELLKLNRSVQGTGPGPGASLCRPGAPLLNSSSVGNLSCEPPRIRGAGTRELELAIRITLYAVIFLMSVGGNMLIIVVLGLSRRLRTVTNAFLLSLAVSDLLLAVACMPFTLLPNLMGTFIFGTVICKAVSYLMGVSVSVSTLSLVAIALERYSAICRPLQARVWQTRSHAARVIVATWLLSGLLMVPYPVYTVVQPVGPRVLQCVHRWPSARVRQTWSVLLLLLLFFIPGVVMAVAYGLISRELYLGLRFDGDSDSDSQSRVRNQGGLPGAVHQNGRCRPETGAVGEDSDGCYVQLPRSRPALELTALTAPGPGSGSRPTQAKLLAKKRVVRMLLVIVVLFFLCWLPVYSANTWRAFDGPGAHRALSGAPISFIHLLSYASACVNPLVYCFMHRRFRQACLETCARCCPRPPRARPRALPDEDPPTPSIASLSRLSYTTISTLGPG

[4] = target: Histamine H2 receptor (Homo sapiens, UniProt P25021); format: functional, cell-based
[5] = target: T2, Alpha-1A adrenergic receptor (Homo sapiens, UniProt P35348); format: functional, cell-based
T2 sequence (P35348 whole entry): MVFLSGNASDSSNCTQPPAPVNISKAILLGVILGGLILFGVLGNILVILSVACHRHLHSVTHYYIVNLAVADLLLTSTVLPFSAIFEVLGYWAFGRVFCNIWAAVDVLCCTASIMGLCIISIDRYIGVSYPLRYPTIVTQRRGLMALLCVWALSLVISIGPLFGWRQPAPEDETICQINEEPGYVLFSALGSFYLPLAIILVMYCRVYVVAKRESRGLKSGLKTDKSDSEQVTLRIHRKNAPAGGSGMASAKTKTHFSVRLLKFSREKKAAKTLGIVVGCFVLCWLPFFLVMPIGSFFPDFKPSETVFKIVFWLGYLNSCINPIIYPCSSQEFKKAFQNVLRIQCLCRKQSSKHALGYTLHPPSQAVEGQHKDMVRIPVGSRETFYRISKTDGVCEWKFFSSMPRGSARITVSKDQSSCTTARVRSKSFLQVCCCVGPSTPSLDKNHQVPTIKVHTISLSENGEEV

[6] = target: T3, Muscarinic acetylcholine receptor M2 (Homo sapiens, UniProt P08172)
T3 sequence (P08172 whole entry): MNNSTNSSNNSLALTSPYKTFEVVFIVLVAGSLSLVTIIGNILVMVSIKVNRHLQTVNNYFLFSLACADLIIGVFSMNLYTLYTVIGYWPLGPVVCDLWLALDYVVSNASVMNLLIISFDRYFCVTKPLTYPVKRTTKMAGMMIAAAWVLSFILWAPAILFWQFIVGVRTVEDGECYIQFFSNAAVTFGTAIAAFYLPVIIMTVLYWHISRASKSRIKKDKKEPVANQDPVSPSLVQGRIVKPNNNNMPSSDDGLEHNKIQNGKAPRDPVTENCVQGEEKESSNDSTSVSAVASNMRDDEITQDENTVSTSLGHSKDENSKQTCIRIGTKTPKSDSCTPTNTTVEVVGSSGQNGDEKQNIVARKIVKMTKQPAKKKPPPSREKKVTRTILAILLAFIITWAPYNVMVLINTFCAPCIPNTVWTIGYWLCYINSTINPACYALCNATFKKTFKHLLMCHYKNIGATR

[7] = target: Prostaglandin G/H synthase 1 (Homo sapiens, UniProt P23219); format: functional
[8] = target: T4, Thromboxane A2 receptor (Homo sapiens, UniProt P21731)
T4 sequence (P21731 whole entry): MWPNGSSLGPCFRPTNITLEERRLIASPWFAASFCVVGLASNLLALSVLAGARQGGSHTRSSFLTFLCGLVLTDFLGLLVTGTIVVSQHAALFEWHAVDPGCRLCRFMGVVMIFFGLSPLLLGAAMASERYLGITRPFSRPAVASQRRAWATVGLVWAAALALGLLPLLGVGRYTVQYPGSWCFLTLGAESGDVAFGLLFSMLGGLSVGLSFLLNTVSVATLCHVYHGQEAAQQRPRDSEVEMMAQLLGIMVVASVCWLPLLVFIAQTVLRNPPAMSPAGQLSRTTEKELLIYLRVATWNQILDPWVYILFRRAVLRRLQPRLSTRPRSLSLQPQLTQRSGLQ

[9] = target: T4, Thromboxane A2 receptor; format: functional, cell-based
[10] = target: Muscarinic acetylcholine receptor M3 (Homo sapiens, UniProt P20309)
[11] = target: T5, Muscarinic acetylcholine receptor M1 (Homo sapiens, UniProt P11229); format: functional, cell-based
T5 sequence (P11229 whole entry): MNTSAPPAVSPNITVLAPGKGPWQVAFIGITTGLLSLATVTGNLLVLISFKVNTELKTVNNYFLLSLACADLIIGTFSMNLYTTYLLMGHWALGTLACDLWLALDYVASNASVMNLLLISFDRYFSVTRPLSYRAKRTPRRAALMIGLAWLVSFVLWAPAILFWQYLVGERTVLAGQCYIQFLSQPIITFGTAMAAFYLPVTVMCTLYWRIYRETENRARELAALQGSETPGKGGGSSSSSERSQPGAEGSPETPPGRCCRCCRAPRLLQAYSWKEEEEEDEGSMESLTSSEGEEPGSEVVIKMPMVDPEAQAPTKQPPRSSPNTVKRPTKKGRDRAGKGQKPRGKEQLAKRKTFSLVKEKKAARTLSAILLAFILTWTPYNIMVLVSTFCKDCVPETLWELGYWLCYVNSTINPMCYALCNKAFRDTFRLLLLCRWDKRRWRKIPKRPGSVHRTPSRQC

[12] = target: T2, Alpha-1A adrenergic receptor; format: functional, cell-based; remark: listed apart in the source
[13] = target: T4, Thromboxane A2 receptor; format: functional, cell-based; remark: listed apart in the source
[14] = target: Prothrombin (Homo sapiens, UniProt P00734); format: functional
[15] = target: T2, Alpha-1A adrenergic receptor; format: functional, cell-based; remark: listed apart in the source
Further: assay procedure not described here.

Voltage-dependent L-type calcium channel subunit alpha-1C, sequence (P22002 whole entry): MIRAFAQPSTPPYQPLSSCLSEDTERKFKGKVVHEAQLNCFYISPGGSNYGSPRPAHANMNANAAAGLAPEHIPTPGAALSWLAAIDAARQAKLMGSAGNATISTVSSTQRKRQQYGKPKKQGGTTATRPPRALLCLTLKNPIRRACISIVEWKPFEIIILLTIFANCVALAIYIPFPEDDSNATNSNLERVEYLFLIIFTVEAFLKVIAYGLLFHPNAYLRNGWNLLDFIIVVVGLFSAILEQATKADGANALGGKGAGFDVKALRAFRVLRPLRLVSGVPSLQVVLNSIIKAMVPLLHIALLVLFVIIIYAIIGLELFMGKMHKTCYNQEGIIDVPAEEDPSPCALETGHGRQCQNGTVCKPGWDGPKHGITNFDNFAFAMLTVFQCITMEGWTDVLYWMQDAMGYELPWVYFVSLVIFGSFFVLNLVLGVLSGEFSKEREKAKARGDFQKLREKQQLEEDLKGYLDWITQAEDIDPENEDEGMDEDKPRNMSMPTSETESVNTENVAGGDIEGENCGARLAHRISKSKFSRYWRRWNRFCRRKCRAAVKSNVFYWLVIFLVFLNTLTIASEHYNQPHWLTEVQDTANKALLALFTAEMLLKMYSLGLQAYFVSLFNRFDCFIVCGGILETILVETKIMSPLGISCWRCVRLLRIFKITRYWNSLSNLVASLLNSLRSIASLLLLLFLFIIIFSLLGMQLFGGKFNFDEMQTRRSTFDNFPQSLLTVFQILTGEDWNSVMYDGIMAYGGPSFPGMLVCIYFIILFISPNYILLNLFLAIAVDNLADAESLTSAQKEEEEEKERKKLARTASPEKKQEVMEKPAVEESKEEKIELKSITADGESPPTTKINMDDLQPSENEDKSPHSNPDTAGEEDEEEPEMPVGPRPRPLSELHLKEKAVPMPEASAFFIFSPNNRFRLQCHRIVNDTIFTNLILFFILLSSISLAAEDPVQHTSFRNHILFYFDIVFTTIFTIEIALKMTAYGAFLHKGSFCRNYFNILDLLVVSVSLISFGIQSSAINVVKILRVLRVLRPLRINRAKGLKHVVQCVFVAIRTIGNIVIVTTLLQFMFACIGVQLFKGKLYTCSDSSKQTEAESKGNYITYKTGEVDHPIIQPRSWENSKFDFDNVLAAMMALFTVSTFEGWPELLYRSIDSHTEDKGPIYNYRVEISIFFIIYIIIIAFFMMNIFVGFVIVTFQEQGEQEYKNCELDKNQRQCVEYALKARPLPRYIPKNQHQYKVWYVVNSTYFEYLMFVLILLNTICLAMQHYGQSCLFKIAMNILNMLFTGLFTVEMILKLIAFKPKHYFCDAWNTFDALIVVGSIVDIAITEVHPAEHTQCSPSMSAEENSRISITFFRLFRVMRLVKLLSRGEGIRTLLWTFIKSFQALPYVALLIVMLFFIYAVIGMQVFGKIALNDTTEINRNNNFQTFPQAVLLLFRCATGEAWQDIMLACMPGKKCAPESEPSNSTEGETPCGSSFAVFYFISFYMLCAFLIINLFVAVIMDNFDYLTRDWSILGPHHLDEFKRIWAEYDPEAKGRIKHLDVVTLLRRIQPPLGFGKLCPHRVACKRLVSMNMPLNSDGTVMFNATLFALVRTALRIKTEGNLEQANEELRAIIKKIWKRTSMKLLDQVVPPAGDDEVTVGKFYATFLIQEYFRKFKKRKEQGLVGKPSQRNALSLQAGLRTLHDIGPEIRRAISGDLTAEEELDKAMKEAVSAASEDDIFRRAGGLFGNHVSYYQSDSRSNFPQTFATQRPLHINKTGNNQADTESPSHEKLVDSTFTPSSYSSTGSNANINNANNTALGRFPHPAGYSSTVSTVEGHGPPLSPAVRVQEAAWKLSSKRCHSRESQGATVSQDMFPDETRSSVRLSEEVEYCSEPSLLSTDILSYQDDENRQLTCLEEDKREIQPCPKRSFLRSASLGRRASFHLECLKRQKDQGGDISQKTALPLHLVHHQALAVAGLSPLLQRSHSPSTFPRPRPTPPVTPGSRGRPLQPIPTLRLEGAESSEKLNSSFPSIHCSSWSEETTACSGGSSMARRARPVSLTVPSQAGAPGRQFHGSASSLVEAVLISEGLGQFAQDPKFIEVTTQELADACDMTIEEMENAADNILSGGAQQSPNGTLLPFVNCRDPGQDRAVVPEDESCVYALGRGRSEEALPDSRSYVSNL
Histamine H3 receptor, sequence (Q9Y5N1 whole entry): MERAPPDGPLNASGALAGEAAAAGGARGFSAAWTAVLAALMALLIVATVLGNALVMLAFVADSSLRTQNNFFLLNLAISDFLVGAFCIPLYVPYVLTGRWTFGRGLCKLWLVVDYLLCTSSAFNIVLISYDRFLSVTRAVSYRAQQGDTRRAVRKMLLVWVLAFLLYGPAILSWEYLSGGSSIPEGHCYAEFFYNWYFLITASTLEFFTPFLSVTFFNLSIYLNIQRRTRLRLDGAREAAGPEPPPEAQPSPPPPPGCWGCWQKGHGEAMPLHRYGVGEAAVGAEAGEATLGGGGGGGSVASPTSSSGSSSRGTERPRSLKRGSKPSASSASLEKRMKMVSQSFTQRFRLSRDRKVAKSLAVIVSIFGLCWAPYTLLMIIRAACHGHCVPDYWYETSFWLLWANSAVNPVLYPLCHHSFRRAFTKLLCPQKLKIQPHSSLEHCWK
Histamine H2 receptor, sequence (P25021 whole entry): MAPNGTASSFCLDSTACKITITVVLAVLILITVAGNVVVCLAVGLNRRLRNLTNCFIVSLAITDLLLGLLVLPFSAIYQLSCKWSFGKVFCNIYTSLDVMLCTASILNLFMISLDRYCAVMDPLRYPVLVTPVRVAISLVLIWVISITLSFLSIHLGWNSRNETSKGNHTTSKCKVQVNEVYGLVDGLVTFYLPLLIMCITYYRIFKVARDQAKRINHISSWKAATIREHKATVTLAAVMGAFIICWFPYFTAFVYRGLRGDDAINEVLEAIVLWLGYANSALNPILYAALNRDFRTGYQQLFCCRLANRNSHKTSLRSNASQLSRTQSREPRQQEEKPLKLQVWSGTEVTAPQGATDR
Prostaglandin G/H synthase 1, sequence (P23219 whole entry): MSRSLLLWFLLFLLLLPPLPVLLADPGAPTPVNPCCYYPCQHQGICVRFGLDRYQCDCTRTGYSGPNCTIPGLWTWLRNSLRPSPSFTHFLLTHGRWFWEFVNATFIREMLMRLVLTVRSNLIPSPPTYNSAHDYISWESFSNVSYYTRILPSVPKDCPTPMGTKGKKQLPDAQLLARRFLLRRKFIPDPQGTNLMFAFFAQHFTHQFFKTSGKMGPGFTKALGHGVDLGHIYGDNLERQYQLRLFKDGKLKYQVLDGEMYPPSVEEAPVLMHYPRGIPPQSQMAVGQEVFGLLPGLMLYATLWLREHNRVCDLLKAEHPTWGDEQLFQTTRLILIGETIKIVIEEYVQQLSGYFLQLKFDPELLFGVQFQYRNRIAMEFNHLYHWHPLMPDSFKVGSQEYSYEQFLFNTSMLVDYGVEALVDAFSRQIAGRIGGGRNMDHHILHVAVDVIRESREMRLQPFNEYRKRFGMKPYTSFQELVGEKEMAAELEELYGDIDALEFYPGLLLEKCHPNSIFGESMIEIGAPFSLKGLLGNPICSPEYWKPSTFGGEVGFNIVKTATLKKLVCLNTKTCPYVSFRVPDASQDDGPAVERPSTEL
Muscarinic acetylcholine receptor M3, sequence (P20309 whole entry): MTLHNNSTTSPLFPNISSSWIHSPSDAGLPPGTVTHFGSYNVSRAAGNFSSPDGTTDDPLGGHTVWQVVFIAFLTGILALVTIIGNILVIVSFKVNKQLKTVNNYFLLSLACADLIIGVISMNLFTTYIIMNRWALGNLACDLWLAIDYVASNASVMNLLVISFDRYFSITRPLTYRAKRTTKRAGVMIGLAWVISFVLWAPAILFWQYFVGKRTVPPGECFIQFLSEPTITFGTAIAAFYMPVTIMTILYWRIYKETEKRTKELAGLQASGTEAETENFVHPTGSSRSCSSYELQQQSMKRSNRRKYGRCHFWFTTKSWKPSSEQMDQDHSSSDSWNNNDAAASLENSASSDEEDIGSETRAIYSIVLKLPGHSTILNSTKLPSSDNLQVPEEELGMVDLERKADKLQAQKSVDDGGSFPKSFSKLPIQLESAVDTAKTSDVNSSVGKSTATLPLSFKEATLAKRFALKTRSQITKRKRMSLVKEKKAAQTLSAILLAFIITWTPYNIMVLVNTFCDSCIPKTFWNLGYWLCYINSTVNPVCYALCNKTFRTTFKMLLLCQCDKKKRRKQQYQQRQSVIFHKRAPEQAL

Structure (SMILES) | AC50 [1] [µM] | AC50 [2] [µM] | AC50 [3] [µM] | AC50 [4] [µM] | AC50 [5] [µM] | AC50 [6] [µM] | AC50 [7] [µM] | AC50 [8] [µM] | AC50 [9] [µM] | AC50 [10] [µM] | AC50 [11] [µM] | AC50 [12] [µM] | AC50 [13] [µM] | AC50 [14] [µM] | AC50 [15] [µM]
C=CCc1ccccc1OCC(O)CNC(C)C (stereo not drawn) [ALPRENOLOL] | > 30 | > 30 | > 30 | > 30 | > 0.3 | > 0.3 | > 0.3 | > 30 | > 0.3 | > 30 | > 0.3 | > 30 | > 0.3 | > 0.3 | 7.53
CC1(C)NC(=O)N(c2ccc([N+](=O)[O-])c(C(F)(F)F)c2)C1=O [NILUTAMIDE] | > 30 | > 30 | > 30 | > 30 | > 30 | > 30 | > 30 | > 30 | > 30 | > 30 | > 3 | – | > 3 | > 30 | –
CC[C@H]1[C@@H](O)[C@@H]2[C@H](CC[C@]3(C)[C@@H]([C@H](C)CCC(=O)O)CC[C@@H]23)[C@@]2(C)CC[C@@H](O)C[C@@H]12 [OBETICHOLIC ACID] | > 30 | > 30 | > 30 | > 30 | > 30 | > 30 | > 30 | > 30 | > 30 | > 30 | > 30 | > 30 | > 30 | > 30 | 6.3
O=C(OCC(O)CO)c1ccccc1Nc1ccnc2cc(Cl)ccc12 (stereo not drawn) [GLAFENINE] | – | > 30 | – | – | > 30 | 4.3 | > 30 | – | > 30 | > 30 | 7.51 | > 30 | > 30 | > 30 | > 30
COCCCN1CCC(NC(=O)c2cc(Cl)c(N)c3c2OCC3)CC1 [PRUCALOPRIDE] | – | > 30 | – | – | > 30 | > 30 | 23.6 | – | > 30 | > 30 | > 30 | > 30 | > 30 | > 30 | 15
O=C(Cc1ccc(-c2ccccc2)cc1)Nc1ccccn1 [DIFENPIRAMIDE] | – | – | – | > 30 | > 30 | > 30 | > 30 | – | > 30 | > 30 | > 10 | > 30 | > 30 | > 30 | > 30
N[C@@H](C(=O)N[C@@H]1C(=O)N2C(C(=O)O)=C(Cl)CC[C@H]12)c1ccccc1 [LORACARBEF ANHYDROUS] | – | – | – | – | > 30 | > 30 | > 30 | – | > 30 | – | > 30 | – | > 30 | > 30 | –
